Data published in patent US9339503B2, “Tetrahydro-quinazolinone derivatives as TANK and PARP inhibitors” (MERCK PATENT GMBH, priority 2012, dated 2016).

Tests used:
tankyrase 1/2 = test: Measurement of cellular inhibition of tankyrase (Axin2 level, Luminex based assay, DLD1 cells); conditions: 24 hours, increase of Axin2 level, read-out: EC50 tankyrase 1/2 (cell assay)
Description: Measurement of Cellular Inhibition of Tankyrase
Since Tankyrases have been described to modulate cellular level of Axin2 (Huang et al., 2009; Nature) the increase of Axin2 level is used as read-out for determination of cellular inhibition of Tankyrases in a Luminex based assay.
Cells of the colon carcinoma cell line DLD1 are plated in 96 well plates with 1.5×10^4 cells per well. Next day, cells are treated with a serial-dilution of test compound in seven steps as triplicates with a final DMSO concentration of 0.3%. After 24 hours, cells are lysed in lysis buffer (20 mM Tris/HCl pH 8.0, 150 mM NaCl, 1% NP40, 10% Glycerol) and lysates are cleared by centrifugation through a 96 well filter plate (0.65 μm). Axin2 protein is isolated from cell lysates by incubation with a monoclonal anti-Axin2 antibody (R&D Systems #MAB6078) that is bound to fluorescent carboxybeads. Then, bound Axin2 is specifically detected with a polyclonal anti-Axin2 antibody (Cell Signaling #2151) and an appropriate PE-fluorescent secondary antibody. The amount of isolated Axin2 protein is determined in a Luminex^200 machine (Luminex Corporation) according to the manufacturer's instruction by counting 100 events per well. […] For analysis, the obtained data were normalized against the untreated solvent control and fitted for determination of the EC50 values using the Assay Explorer software (Accelrys).

[1] = biological target: T1, GST-tagged Tankyrase-1 (1023-1327 aa) (Homo sapiens, UniProt O95271); test: Tankyrase 1 autoparsylation assay (HTRF enzyme assay); assay type: biochemical
T1 construct: GST-tagged Tankyrase-1 (1023-1327 aa)
Description: (§1) The autoparsylation assay was run in two steps: the enzymatic reaction in which GST-tagged Tankyrase-1, resp Tankyrase-2 transferred biotinylated ADP-ribose to itself from biotinylated NAD as co-substrate and the detection reaction where a time resolved FRET between cryptate labelled anti-GST bound to the GST tag of the enzyme and Xlent® labelled-streptavidin bound the biotin-parsylation residue was analysed. The autoparsylation activity was detectable directly via the increase in HTRF signal.
(§2) The autoparsylation assay was performed as 384-well HTRF® (Cisbio, Codolet, France) assay format in Greiner low volume nb 384-well microtiter plates and was used for high throughput screen. 250 nM GST-tagged Tankyrase-1 (1023-1327 aa), respectively about 250 nM GST-tagged Tankyrase-2 (873-1166 aa) and 5 μM bio-NAD (Biolog, Life science Inst., Bremen, Germany) as co-substrate were incubated in a total volume of 5 μl (50 mM HEPES, 4 mM Mg-chloride, 0.05% Pluronic F-68, 1.4 mM DTT, 0.5% DMSO, pH 7.7) in the absence or presence of the test compound (10 dilution concentrations) for 90 min at 30° C. The reaction was stopped by the addition of 1 μl 50 mM EDTA solution. 2 μl of the detection solution (1.6 μM SA-Xlent® (Cisbio, Codolet, France), 7.4 nM Anti-GST-K® (Eu-labelled anti-GST, Cisbio, Codolet, France) in 50 mM HEPES, 800 mM KF, 0.1% BSA, 20 mM EDTA, 0.1% CHAPS, pH 7.0) were added. After 1 h incubation at room temperature the HTRF was measured with an Envision multimode reader (Perkin Elmer LAS Germany GmbH) at excitation wavelength 340 nm (laser mode) and emission wavelengths 615 nm and 665 nm. The ratio of the emission signals was determined. The full value used was the inhibitor-free reaction. The pharmacological zero value used was XAV-939 (Tocris) in a final concentration of 5 μM. The inhibitory values (IC50) were determined using either the program Symyx Assay Explorer® or Condosseo® from GeneData.

[2] = biological target: T2, GST-tagged Tankyrase-2 (873-1166 aa) (Homo sapiens, UniProt Q9H2K2); test: Tankyrase 2 autoparsylation assay (HTRF enzyme assay); assay type: biochemical
T2 construct: GST-tagged Tankyrase-2 (873-1166 aa)
Description: as §1, §2

[3] = biological target: T3, GST-tagged Tnks-1 (1023-1327 aa) (Homo sapiens, UniProt O95271); test: TNKS 1 activity ELISA (autoparsylation assay); assay type: biochemical; conditions: read-out: IC50 tankyrase 1 (ELISA assay)
T3 construct: GST-tagged Tnks-1 (1023-1327 aa, prepared in-house); made in house
Description: (§3) Biochemical Activity Testing of TNKS 1 and 2: Activity ELISA (Autoparsylation Assay)
(§4) For analysis of autoparsylation activity of TNKS 1 and 2 an activity ELISA was performed: In the first step GST tagged TNKS was captured on a Glutathione coated plate. Then the activity assay with biotinylated NAD was performed in the absence/presence of the compounds. During the enzymatic reaction GST tagged TNKS transferred biotinylated ADP-ribose to itself from biotinylated NAD as co-substrate. For the detection streptavidin-HRP conjugate was added that bound to the biotinylated TNKS and was thereby captured to the plates. The amount of biotinylated resp autoparsylated TNKS was detected with a luminescence substrate for HRP. The level of the luminescence signal correlated directly with the amount of autoparsylated TNKS and therefore with activity of TNKS.
(§5) The activity ELISA was performed in 384 well Glutathione coated microtiter plates (Express capture Glutathione coated plate, Biocat, Heidelberg, Germany). The plates were pre-equilibrated with PBS. Then the plates were incubated with 50 μl 20 ng/well GST-tagged Tnks-1 (1023-1327 aa, prepared in-house), respectively GST-tagged Tnks-2 (873-1166 aa, prepared in-house) in assay buffer (50 mM HEPES, 4 mM Mg-chloride, 0.05% Pluronic F-68, 2 mM DTT, pH 7.7) overnight at 4° C. The plates were washed 3 times with PBS-Tween-20. The wells were blocked by incubation at room temperature for 20 minutes with 50 μl blocking buffer (PBS, 0.05% Tween-20, 0.5% BSA). Afterwards the plates were washed 3 times with PBS-Tween-20. The enzymatic reaction was performed in 50 μl reaction solution (50 mM HEPES, 4 mM Mg-chloride, 0.05% Pluronic F-68, 1.4 mM DTT, 0.5% DMSO, pH 7.7) with 10 μM bio-NAD (Biolog, Life science Inst., Bremen, Germany) as co-substrate in the absence or presence of the test compound (10 dilution concentrations) for 1 hour at 30° C. The reaction was stopped by 3 times washing with PBS-Tween-20. For the detection 50 μl of 20 ng/μl Streptavidin, HRP conjugate (MoBiTec, Göttingen, Germany) in PBS/0.05% Tween-20/0.01% BSA were added and the plates were incubated for 30 minutes at room temperature. After three times washing with PBS-Tween-20 50 μl of SuperSignal ELISA Femto Maximum sensitivity substrate solution (ThermoFisherScientific (Pierce), Bonn, Germany) were added. Following a 1 minute incubation at room temperature luminescence signals were measured with an Envision multimode reader (Perkin Elmer LAS Germany GmbH) at 700 nm. The full value used was the inhibitor-free reaction. The pharmacological zero value used was XAV-939 (Tocris) in a final concentration of 5 μM. The inhibitory values (IC50) were determined using either the program Symyx Assay Explorer® or Condosseo® from GeneData.

[4] = biological target: T4, GST-tagged Tnks-2 (873-1166 aa) (Homo sapiens, UniProt Q9H2K2); test: TNKS 2 activity ELISA (autoparsylation assay); assay type: biochemical; conditions: read-out: IC50 tankyrase 2 (ELISA assay)
T4 construct: GST-tagged Tnks-2 (873-1166 aa, prepared in-house); made in house
Description: as §3, §4, §5

T3 sequence (O95271 1023-1327): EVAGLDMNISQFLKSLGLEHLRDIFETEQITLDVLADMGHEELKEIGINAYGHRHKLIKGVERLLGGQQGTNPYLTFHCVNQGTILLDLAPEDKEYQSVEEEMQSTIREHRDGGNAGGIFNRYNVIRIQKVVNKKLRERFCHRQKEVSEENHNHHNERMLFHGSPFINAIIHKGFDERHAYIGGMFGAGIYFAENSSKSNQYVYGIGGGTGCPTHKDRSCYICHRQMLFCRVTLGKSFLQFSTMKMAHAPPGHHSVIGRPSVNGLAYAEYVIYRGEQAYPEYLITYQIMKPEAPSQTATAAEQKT
T1 sequence (O95271 1023-1327): as above
T4 sequence (Q9H2K2 873-1166): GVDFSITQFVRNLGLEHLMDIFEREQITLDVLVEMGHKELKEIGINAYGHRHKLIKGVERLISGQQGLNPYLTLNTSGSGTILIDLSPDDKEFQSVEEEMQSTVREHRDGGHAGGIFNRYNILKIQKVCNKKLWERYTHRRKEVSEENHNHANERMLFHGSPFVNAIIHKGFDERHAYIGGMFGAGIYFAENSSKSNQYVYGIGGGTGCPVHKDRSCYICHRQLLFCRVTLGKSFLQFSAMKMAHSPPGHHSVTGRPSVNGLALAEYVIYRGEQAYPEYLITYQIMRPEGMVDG
T2 sequence (Q9H2K2 873-1166): as above

Row | Structure (SMILES) | EC50 (tankyrase 1/2) [µM] | IC50 [1] [µM] | IC50 [2] [µM] | IC50 [3] [µM] | IC50 [4] [µM]
1 | O=c1[nH]c(N2CCN(c3cccc(F)c3)CC2)nc2c1CCCC2 [Compound A5, 2-[4-(3-Fluorophenyl)piperazin-1-yl]-5,6,7,8-tetrahydro-3H-quinazolin-4-one] | 3 to 50 | 0.3 to 3 | 0.3 to 3 | < 0.3 | < 0.3
2 | O=c1[nH]c(N2CCN(c3ccc(Cl)cc3)CC2)nc2c1CCCC2 [Compound A8, 2-[4-(4-Chlorophenyl)piperazin-1-yl]-5,6,7,8-tetrahydro-3H-quinazolin-4-one] | 3 to 50 | 0.3 to 3 | 0.3 to 3 | < 0.3 | < 0.3
3 | CC(C)(C)N1CCN(c2nc3c(c(=O)[nH]2)CCCC3)CC1 [Compound A13, 2-(4-tert-Butylpiperazin-1-yl)-5,6,7,8-tetrahydro-3H-quinazolin-4-one] | 3 to 50 | 0.3 to 3 | 0.3 to 3 |  | 
4 | COc1ccc(N2CCN(c3nc4c(c(=O)[nH]3)CCCC4)CC2=O)cc1 [Compound A14, 2-[4-(4-Methoxyphenyl)-3-oxopiperazin-1-yl]-5,6,7,8-tetrahydro-3H-quinazolin-4-one] | 3 to 50 | 3 to 50 | 3 to 50 |  | 
5 | O=C(N1CCCCC1)N1CCN(c2nc3c(c(=O)[nH]2)CCCC3)CC1 [Compound A15, 2-[4-(Piperidine-1-carbonyl)piperazin-1-yl]-5,6,7,8-tetrahydro-3H-quinazolin-4-one] | 3 to 50 | 3 to 50 | 3 to 50 |  | 
6 | O=c1[nH]c(N2CCN(c3cccc(O)n3)CC2)nc2c1CCCC2 [Compound A16, 2-[4-(6-Hydroxypyridin-2-yl)piperazin-1-yl]-5,6,7,8-tetrahydro-3H-quinazolin-4-one] | 3 to 50 | 3 to 50 | 3 to 50 |  | 
7 | O=C(c1ccccc1)N1CCN(c2nc3c(c(=O)[nH]2)CCCC3)CC1 [Compound A17, 2-(4-Benzoylpiperazin-1-yl)-5,6,7,8-tetrahydro-3H-quinazolin-4-one] |  | 3 to 50 | 3 to 50 |  | 
8 | O=C(CN1CCN(c2nc3c(c(=O)[nH]2)CCCC3)CC1)Nc1ccccn1 [Compound A18, N-pyridin-2-yl-2-[4-(4-oxo-3,4,5,6,7,8-hexahydroquinazolin-2-yl)piperazin-1-yl]-acetamide] | 3 to 50 | 0.3 to 3 | 0.3 to 3 |  | 
9 | O=C(N1CCOCC1)N1CCN(c2nc3c(c(=O)[nH]2)CCCC3)CC1 [Compound A20, 2-[4-(Morpholine-4-carbonyl)piperazin-1-yl]-5,6,7,8-tetrahydro-3H-quinazolin-4-one] | 3 to 50 | 3 to 50 | 3 to 50 |  | 
10 | O=c1[nH]c(N2CCN(CCO)CC2)nc2c1CCCC2 [Compound A25, 2-[4-(2-hydroxyethyl)piperazin-1-yl]-5,6,7,8-tetrahydro-3H-quinazolin-4-one] |  | 3 to 50 | 3 to 50 |  | 
11 | O=c1[nH]c(N2CCN(CCc3ccccn3)CC2)nc2c1CCCC2 [Compound A26, 2-[4-[2-(2-pyridyl)ethyl]piperazin-1-yl]-5,6,7,8-tetrahydro-3H-quinazolin-4-one] |  | 0.3 to 3 | 0.3 to 3 |  | 
12 | O=c1[nH]c(N2CCN(c3cccnc3)CC2)nc2c1CCCC2 [Compound A32, 2-[4-(3-pyridyl)piperazin-1-yl]-5,6,7,8-tetrahydro-3H-quinazolin-4-one] |  | 0.3 to 3 | 0.3 to 3 |  | 
13 | O=c1[nH]c(N2CCC(O)(c3ccccc3)CC2)nc2c1CCCC2 [Compound A35, 2-(4-hydroxy-4-phenyl-1-piperidyl)-5,6,7,8-tetrahydro-3H-quinazolin-4-one] | 0.3 to 3 | 0.3 to 3 | 0.3 to 3 |  | 
14 | CC(C)Oc1ccccc1N1CCN(c2nc3c(c(=O)[nH]2)CCCC3)CC1 [Compound A42, 2-[4-(2-isopropoxyphenyl)piperazin-1-yl]-5,6,7,8-tetrahydro-3H-quinazolin-4-one] |  | 0.3 to 3 | 0.3 to 3 |  | 
15 | O=c1[nH]c(N2CCN(c3ccccc3OC(F)(F)F)CC2)nc2c1CCCC2 [Compound A43, 2-[4-[2-(trifluoromethoxy)phenyl]piperazin-1-yl]-5,6,7,8-tetrahydro-3H-quinazolin-4-one] |  | 0.3 to 3 | 3 to 50 |  | 
16 | N#CCc1ccc(N2CCN(c3nc4c(c(=O)[nH]3)CCCC4)CC2)cc1 [Compound A46, 2-[4-[4-(4-oxo-5,6,7,8-tetrahydro-3H-quinazolin-2-yl)piperazin-1-yl]phenyl] acetonitrile] |  | 0.3 to 3 | 0.3 to 3 |  | 
17 | CCOc1ccc(N2CCN(c3nc4c(c(=O)[nH]3)CCCC4)CC2)cc1 [Compound A48, 2-[4-(4-ethoxyphenyl)piperazin-1-yl]-5,6,7,8-tetrahydro-3H-quinazolin-4-one] |  | 0.3 to 3 | 0.3 to 3 | < 0.3 | < 0.3
18 | O=c1[nH]c(N2CCN(c3ccc(C(F)(F)F)cc3)CC2)nc2c1CCCC2 [Compound A50, 2-[4-(4-trifluoromethylphenyl)piperazin-1-yl]-5,6,7,8-tetrahydro-3H-quinazolin-4-one] |  | 0.3 to 3 | 0.3 to 3 |  | 
19 | COc1ccc(C2(O)CCN(c3nc4c(c(=O)[nH]3)CCCC4)CC2)cc1 [Compound A53, 2-[4-hydroxy-4-(4-methoxy-phenyl)-piperidin-1-yl]-5,6,7,8-tetrahydro-3H-quinazolin-4-one] | 0.3 to 3 | 0.3 to 3 | 0.3 to 3 |  | 
